According to patent US20230357447A1, “TUMOR ACTIVATED MULTISPECIFIC ANTIBODIES FOR TARGETING CD28 AND PD-L1 AND METHODS OF USE THEREOF” (Janux Therapeutics, Inc., priority 2022, published 2023):

Assays:
[1] = tested on: anti-CD28 scFv (SEQ ID NO: 9); experiment: Octet bio-layer interferometry kinetic binding of anti-CD28 scFv to peptides; set-up: species or system human; details: Octet RED96, 1:1 binding model
Protocol: (§1) Association and dissociation signals were recorded in real time and analyzed using a 1:1 binding model within the instrument software. Analysis using a 1:1 binding model enabled the calculation of the on and off rate constants as well as affinity, KD.
as §1

Ab-12 = experiment: Octet bio-layer interferometry kinetic binding of Ab-12 to peptides; details: Octet RED96, 1:1 binding model; for Kd: biotinylated peptide loaded at 200 nM on streptavidin biosensors, Ab-12 100, 50, 25, 12.5 nM; for kdis: peptide on sensor, Ab-12 100-12.5 nM
Protocol: Briefly, streptavidin biosensors were loaded with biotinylated peptides and baselined in buffer. […] After a short association period, sensors were transferred into buffer and the dissociation of bound anti-CD28 scFv or Ab-12 was measured. The timing and steps of the experiment are shown in the accompanying table. Association and dissociation signals were recorded in real time and analyzed using a 1:1 binding model within the instrument software. Analysis using a 1:1 binding model enabled the calculation of the on and off rate constants as well as affinity, KD.

[2] = biotinylated peptide loaded on streptavidin biosensor, anti-CD28 scFv in solution
[3] = peptide on sensor, CD28 scFv 100-12.5 nM

Row | Compound | kdis [1, 2] [s⁻¹] | also measured
1 | CSCC[C@H](N)C(=O)N[C@@H](CC(=O)O)C(=O)N[C@@H](Cc1c[nH]c2ccccc12)C(=O)N[C@H]1CSSC[C@@H](C(=O)N[C@@H](Cc2ccccc2)C(=O)N[C@@H](Cc2ccccc2)C(=O)O)NC(=O)[C@H](CC(=O)O)NC(=O)[C@H](C(C)C)NC(=O)[C@H](Cc2c[nH]c3ccccc23)NC(=O)[C@H](CCCNC(=N)N)NC(=O)[C@H](CCC(=O)O)NC(=O)[C@H](CCCNC(=N)N)NC(=O)[C@@H]2CCCN2C1=O [Peptide-9] | 0.0115 | kdis [1, 3]: 0.0123 s⁻¹; Kd (Ab-12): 0.0188 µM; kdis (Ab-12): 0.00317 s⁻¹
2 | CSCC[C@@H]1NC(=O)[C@H](CC(=O)O)NC(=O)CNC(=O)[C@H](Cc2c[nH]c3ccccc23)NC(=O)[C@H](Cc2ccc(O)cc2)NC(=O)[C@H](Cc2c[nH]cn2)NC(=O)[C@@H](NC(=O)[C@H](Cc2ccc(O)cc2)NC(=O)CN)CSSC[C@@H](C(=O)NCC(=O)O)NC(=O)[C@H](Cc2c[nH]c3ccccc23)NC(=O)[C@H](CCSC)NC(=O)[C@H](C(C)C)NC1=O [Peptide-12] |  | kdis [1, 3]: 0.00167 s⁻¹; Kd (Ab-12): 0.0131 µM; kdis (Ab-12): 0.00127 s⁻¹
3 | CSCC[C@H](N)C(=O)N[C@@H](CC(=O)O)C(=O)N[C@@H](Cc1c[nH]c2ccccc12)C(=O)N[C@H]1CSSC[C@@H](C(=O)N[C@@H](Cc2ccccc2)C(=O)N[C@@H](C)C(=O)O)NC(=O)[C@H](CCC(=O)O)NC(=O)[C@H](Cc2c[nH]cn2)NC(=O)[C@H](Cc2c[nH]c3ccccc23)NC(=O)[C@H](CC(C)C)NC(=O)[C@H](CC(=O)O)NC(=O)[C@H](CCCNC(=N)N)NC(=O)[C@@H]2CCCN2C1=O [Peptide-38] | 0.00277 | 
4 | CSCC[C@H](N)C(=O)N[C@@H](CC(=O)O)C(=O)N[C@@H](Cc1c[nH]c2ccccc12)C(=O)N[C@H]1CSSC[C@@H](C(=O)N[C@@H](Cc2ccccc2)C(=O)N[C@@H](CO)C(=O)O)NC(=O)[C@H](CC(C)C)NC(=O)[C@H](Cc2c[nH]cn2)NC(=O)[C@H](Cc2c[nH]c3ccccc23)NC(=O)[C@H](CC(C)C)NC(=O)[C@H](CC(=O)O)NC(=O)[C@H](CCCNC(=N)N)NC(=O)[C@@H]2CCCN2C1=O [Peptide-39] | 0.00265 | 
5 | CSCC[C@H](N)C(=O)N[C@@H](CC(=O)O)C(=O)N[C@@H](Cc1c[nH]c2ccccc12)C(=O)N[C@H]1CSSC[C@@H](C(=O)N[C@@H](Cc2ccccc2)C(=O)N[C@@H](Cc2ccccc2)C(=O)O)NC(=O)[C@H](CCC(=O)O)NC(=O)[C@H](CO)NC(=O)[C@H](Cc2c[nH]c3ccccc23)NC(=O)[C@H](CC(C)C)NC(=O)[C@H](CC(=O)O)NC(=O)[C@H](CCCNC(=N)N)NC(=O)[C@@H]2CCCN2C1=O [Peptide-40] | 0.0031 | 
6 | CSCC[C@H](N)C(=O)N[C@@H](CC(=O)O)C(=O)N[C@@H](Cc1c[nH]c2ccccc12)C(=O)N[C@H]1CSSC[C@@H](C(=O)N[C@@H](Cc2ccccc2)C(=O)N[C@@H](C)C(=O)O)NC(=O)[C@H](Cc2c[nH]cn2)NC(=O)[C@H](C(C)C)NC(=O)[C@H](Cc2c[nH]c3ccccc23)NC(=O)[C@H](CC(C)C)NC(=O)[C@H](CC(=O)O)NC(=O)[C@H](CCCNC(=N)N)NC(=O)[C@@H]2CCCN2C1=O [Peptide-41] | 0.00154 | 
7 | CSCC[C@@H]1NC(=O)[C@H](CC(=O)O)NC(=O)[C@H](CCCNC(=N)N)NC(=O)[C@@H]2CCCN2C(=O)[C@@H](NC(=O)[C@H](Cc2c[nH]c3ccccc23)NC(=O)[C@H](CC(=O)O)NC(=O)[C@@H](N)CCSC)CSSC[C@@H](C(=O)N[C@@H](Cc2ccccc2)C(=O)N[C@@H](C)C(=O)O)NC(=O)[C@H](CCC(=O)O)NC(=O)[C@H](CC(=O)O)NC(=O)[C@H](Cc2c[nH]c3ccccc23)NC1=O [Peptide-42] | 0.00433 | 
8 | CSCC[C@@H]1NC(=O)[C@H](CC(=O)O)NC(=O)[C@H](CCCNC(=N)N)NC(=O)[C@@H]2CCCN2C(=O)[C@@H](NC(=O)[C@H](Cc2c[nH]c3ccccc23)NC(=O)[C@H](CC(=O)O)NC(=O)[C@@H](N)CCSC)CSSC[C@@H](C(=O)N[C@@H](Cc2ccccc2)C(=O)N[C@@H](C)C(=O)O)NC(=O)[C@H](CCC(=O)O)NC(=O)[C@H](CO)NC(=O)[C@H](Cc2c[nH]c3ccccc23)NC1=O [Peptide-43] | 0.0032 | 
9 | CSCC[C@@H]1NC(=O)[C@H](CC(=O)O)NC(=O)[C@H](CCCNC(=N)N)NC(=O)[C@@H]2CCCN2C(=O)[C@@H](NC(=O)[C@H](Cc2c[nH]c3ccccc23)NC(=O)[C@H](CC(=O)O)NC(=O)[C@@H](N)CCSC)CSSC[C@@H](C(=O)N[C@@H](Cc2ccccc2)C(=O)N[C@@H](CO)C(=O)O)NC(=O)[C@H](C(C)C)NC(=O)[C@H](CO)NC(=O)[C@H](Cc2c[nH]c3ccccc23)NC1=O [Peptide-44] | 0.00812 | 
10 | CSCC[C@@H]1NC(=O)[C@H](Cc2ccccc2)NC(=O)[C@H](CCCNC(=N)N)NC(=O)[C@@H]2CCCN2C(=O)[C@@H](NC(=O)[C@H](Cc2c[nH]c3ccccc23)NC(=O)[C@H](CC(=O)O)NC(=O)[C@@H](N)CCSC)CSSC[C@@H](C(=O)N[C@@H](Cc2ccccc2)C(=O)N[C@@H](CC(N)=O)C(=O)O)NC(=O)[C@H](CCC(=O)O)NC(=O)[C@H](CC(=O)O)NC(=O)[C@H](Cc2c[nH]c3ccccc23)NC1=O [Peptide-45] | 0.00364 | 
11 | CSCC[C@@H]1NC(=O)[C@H](Cc2c[nH]cn2)NC(=O)[C@H](CCCNC(=N)N)NC(=O)[C@@H]2CCCN2C(=O)[C@@H](NC(=O)[C@H](Cc2c[nH]c3ccccc23)NC(=O)[C@H](CC(=O)O)NC(=O)[C@@H](N)CCSC)CSSC[C@@H](C(=O)N[C@@H](Cc2ccccc2)C(=O)N[C@@H](C)C(=O)O)NC(=O)[C@H](Cc2ccc(O)cc2)NC(=O)[C@H](CC(N)=O)NC(=O)[C@H](Cc2c[nH]c3ccccc23)NC1=O [Peptide-46] | 0.00218 | 
12 | CSCC[C@H](N)C(=O)N[C@@H](CC(=O)O)C(=O)N[C@@H](Cc1c[nH]c2ccccc12)C(=O)N[C@H]1CSSC[C@@H](C(=O)N[C@@H](Cc2ccccc2)C(=O)N[C@@H](C)C(=O)O)NC(=O)[C@H](CCC(=O)O)NC(=O)[C@H](Cc2c[nH]cn2)NC(=O)[C@H](Cc2c[nH]c3ccccc23)NC(=O)[C@H](CC(C)C)NC(=O)[C@H](CO)NC(=O)[C@H](CCCNC(=N)N)NC(=O)[C@@H]2CCCN2C1=O [Peptide-47] | 0.00201 | 
13 | CSCC[C@H](N)C(=O)N[C@@H](CC(=O)O)C(=O)N[C@@H](Cc1c[nH]c2ccccc12)C(=O)N[C@H]1CSSC[C@@H](C(=O)N[C@@H](Cc2ccccc2)C(=O)N[C@@H](C)C(=O)O)NC(=O)[C@H](C(C)C)NC(=O)[C@H](Cc2c[nH]cn2)NC(=O)[C@H](Cc2c[nH]c3ccccc23)NC(=O)[C@H](CC(C)C)NC(=O)[C@H](Cc2ccc(O)cc2)NC(=O)[C@H](CCCNC(=N)N)NC(=O)[C@@H]2CCCN2C1=O [Peptide-48] | 0.00187 | 
14 | CSCC[C@H](N)C(=O)N[C@@H](Cc1c[nH]cn1)C(=O)N[C@@H](Cc1c[nH]c2ccccc12)C(=O)N[C@H]1CSSC[C@@H](C(=O)N[C@@H](Cc2ccc(O)cc2)C(=O)N[C@@H](CC(N)=O)C(=O)O)NC(=O)[C@H](CC(C)C)NC(=O)[C@H](Cc2ccc(O)cc2)NC(=O)[C@H](Cc2c[nH]c3ccccc23)NC(=O)[C@H](CC(C)C)NC(=O)[C@H](CC(=O)O)NC(=O)[C@H](C(C)C)NC(=O)[C@@H]2CCCN2C1=O [Peptide-49] | 0.00186 | 
15 | CSCC[C@H](N)C(=O)N[C@@H](CC(=O)O)C(=O)N[C@@H](Cc1c[nH]c2ccccc12)C(=O)N[C@H]1CSSC[C@@H](C(=O)N[C@@H](Cc2ccccc2)C(=O)N[C@@H](C)C(=O)O)NC(=O)[C@H](C(C)C)NC(=O)[C@H](CO)NC(=O)[C@H](Cc2c[nH]c3ccccc23)NC(=O)[C@H](CC(C)C)NC(=O)[C@H](Cc2c[nH]cn2)NC(=O)[C@H](C(C)C)NC(=O)[C@@H]2CCCN2C1=O [Peptide-50] | 0.00443 | 
